Test system: PA (phosphatidic acid) formation in tat-transfected and tar-transfected cells
Experiment: PA mass / myrPA formation in serum-stimulated EB293, 293tat and 293tar cells
Format: cell-based, human
Procedure: Transformed and serum-stimulated cells were measured for total PA mass according to the methods described herein. […] The columns in FIG. 18 represent: (1) EB293 cells plus serum, (2) EB293 cells plus serum plus CT3556 (10 μM.), (3) 293tat cells plus serum, (4) 293tat cells plus serum plus CT3556 (10 μM.), (5) 293tar cells plus serum, and (6) 293tar cells plus serum plus CT3556 (10 μM.).
This procedure begins with those cells that would be normally infected with a virus, such as a retrovirus. However, it is not necessary to utilize a cell line containing a retroviral genome, such as U1 cells. In view of the necessity to utilize containment facilities when using an infected cell line, it is preferable to utilize a macrophage cell line that is not infected. Examples of appropriate macrophage cell lines include, U937, THP1, U1, and P288s (available from standard sources, such as ATCC). The cells are stimulated with a stimulant with or without a candidate drug. Examples of stimulants include 3-5% serum, such as fetal calf serum, or tumor necrosis factor (TNF) (e.g., 20 ng/ml) both of which are standard laboratory reagents. After a time course (within 5 minutes, preferably within 1 minute), the cells are immersed in ice cold methanol to stop any cellular signaling reactions.
One must first quantitatively and qualitatively separate PAs from the other lipids found in serum by a chemical extraction of lipids and high performance liquid chromatography (HPLC) to separate and detect PAs. Chemical extraction can be accomplished, for example, by the method of Bligh et al. (Canadian J. Biochem. Physiol. 37:911-917, 1959) or that of Folch et al. (J. Biol. Chem. 226:497-509, 1957). Briefly, the method of Bligh et al. involves an organic extraction of lipids from biological tissue homogenates or fluids. One volume of sample and three volumes of methanol:chloroform (2:1) are vigorously shaken for 2 min. One volume of chloroform is added and then shaken vigorously for 30 sec. One volume of water is added and then shaken vigorously for 30 sec. The mixture is filtered and the upper aqueous layer is discarded. The lower organic layer contains a mixture of lipid classes. The method of Folch et al. involves the extraction of lipids from biological tissue homogenates or body fluids. One volume of sample plus 20 volumes of chloroform:methanol (2:1) are vigorously shaken for 2 min. The mixture is filtered and an amount of 0.1 N KCl equal to 20% of the extraction mixture volume is added and the mixture is shaken vigorously for 2 min. The aqueous and organic phases are allowed to separate. The upper aqueous layer is discarded. The lower organic layer contains a mixture of lipid classes. Free fatty acids and neutral lipids can be separated from phospholipids by normal phase high performance liquid chromatography (HPLC) by modifying the method of Van Kessel et al. (Biochim et Biophys Acta 486:524-530, 1977). This method involves separation of lipids into their major classes by normal phase (silica) high performance liquid chromatography (HPLC). A 5 micron, 25 cm×0.45 cm silica HPLC column is connected to a binary solvent delivery system followed with a UV detector. The lipid sample is injected on the column and a solvent gradient is run at 1.0 ml/min. […]
Transformed and serum-stimulated cells were measured for total PA mass according to the methods described herein. […]

SMILES: CCCCCCCCNCC(O)CCCCCCCCCn1c(=O)c2c(ncn2C)n(C)c1=O (centres unmarked) [CT2576, 1-(11-octylamino-10-hydroxyundecyl)-3,7-dimethylxanthine]
- inhibition of myrPA formation in stimulated cells (10 μM, tat-transfected cells stimulated with serum): inhibited myrPA formation in stimulated cells
- total PA mass, dose response (EB293 cells with tat expression plasmid, serum, 0 to one minute (FIG. 20)): dose response relationship
